Two compounds from patent US20240336641A1, “3-PYRROLIDINE-INDOLE DERIVATIVES AS SEROTONERGIC PSYCHEDELIC AGENTS FOR THE TREATMENT OF CNS DISORDERS” (Mindset Pharma Inc., priority 2020, published 2024) can be followed below.

The nature of series [1]: In vivo pharmacokinetics in mice (IV and PO). Particulars: male C57BL/6 mice. As to the method:
Male C57BL/6 mice (25-30 g) from Charles River Labs were acclimatized for a minimum of 5 days prior to dosing. Body weights will be recorded on the day of dosing.
Animals dosed p.o. were deprived of food overnight and fed ˜2 h following dosing.
(§1) Formulations were administered intravenously (i.v.) via the tail vein or orally (p.o.) by gavage with disposable feeding needles.
(§2) Serial blood samples were collected via tail snip. Terminal blood samples will be collected under isoflurane anesthesia by cardiac puncture.
(§3) All blood samples were transferred into K2EDTA tubes on wet ice and centrifuged within 5 min (3200×g for 5 min at 4° C.) to obtain plasma. Plasma will be stored at −80° C. until analysis.
(§4) • i. Analysis software: Phoenix® WinNonlin® 8.2 (Pharsight, Certara, Mountainview, CA) • ii. Analysis methods: non-compartmental analysis, linear up/log down trapezoidal rule • iii. PK parameters: C0, t1/2, AUC0-last. AUC0-∞, CL, Vss, MRT, tmax(po), Cmax(po), F, as appropriate

The nature of series [2]: In vivo pharmacokinetics in rats (IV and PO). The following applies: male SD rats. As to the method: as §1, §2, §3, §4
Series [3] relates to head-twitch response (HTR) in male C57BL6 mice. Put plainly: Mouse head twitch response (HTR). The class given is in vivo. Particulars: I-2 10 mg/kg SC, M100907 0.5 mg/kg IP pretreatment. As to the method: FIG. 1. is a graph showing the effect of various doses of exemplary compound of Formula I, 1-2, on head-twitch response (HTR) in male C57BL6 mice. The mice were treated with compound I-2 (0.03-10 mg/kg, SC) by SC route (N=6 mice/dose), and the total number of head twitches were recorded over a 1 h period. Data is expressed as mean±SEM. The induction of head twitches elicited by 5-HT2A receptor agonists is believed to represent a behavioural proxy of their psychedelic effects.
Male C57BL6 mice were pretreated with the selective 5-HT2A receptor antagonist M100907 (0.5 mg/kg IP; also known as volinanserin) prior to the administration of exemplary compound of Formula I, 1-2 (10 mg/kg SC). […] Data is expressed as mean±SEM.
Male, C57BL/6J mice (body weight range 20-30 g) were dosed with the appropriate dose of test article, and following a 1-minute pre-treatment time, placed in individual observation chambers. Animals were visually assessed for the incidence head twitches continuously over a 1 hr period. […] Each head twitch was individually counted by a trained observer, and the data expressed as the mean±SEM of 6-10 mice per group. […]
The effect of various doses of exemplary compound of Formula I, 1-2, on head-twitch response (HTR) in male C57BL6 mice were measured. […] Data is expressed as mean±SEM. […]

Take `[2H]C([2H])(c1c[nH]c2cccc(OC)c12)[C@H]1CCCN1C([2H])([2H])[2H]` [Compound I-39, (R)-4-methoxy-3-((1-(methyl-d3)pyrrolidin-2-yl)methyl-d2)-1H-indole]: the biotransformation after administration result is “^(a)I-39 is hydrolysed to I-44 after IV administration” in series [1] (IV (footnote Table 5)), “^(a)1-39 is hydrolysed to I-44 after IV administration” in series [1] (PO table (footnote Table 6 prints IV)), “^(a)I-39 is hydrolysed to I-44 after IV administration” in series [2] (IV (footnote Table 7)) and “^(a)I-39 is hydrolysed to I-44 after oral administration” in series [2] (oral (footnote Table 8)).

Consider `[2H]C([2H])([2H])N1CCC[C@@H]1Cc1c[nH]c2cccc(O)c12` [Compound I-2, (R)-3-((1-(methyl-d3)pyrrolidin-2-yl)methyl)-1H-indol-4-ol], for which, in series [3], the “effect on head-twitch response (HTR) after pretreatment with selective 5-HT2A antagonist M100907” value is “completely blocked”.
